Test results taken from ChEMBL document CHEMBL3608278 (J Med Chem, 2015).

Legend:
[1] = target: T1, Potassium voltage-gated channel subfamily A member 3 (Homo sapiens, UniProt P22001); assay: cell-based; design: species or system Blood
[2] = target: T1, Potassium voltage-gated channel subfamily A member 3; assay type: cell-based, CHO-K1
[3] = target: T1, Potassium voltage-gated channel subfamily A member 3; design: species or system Blood

T1 sequence (P22001 whole entry): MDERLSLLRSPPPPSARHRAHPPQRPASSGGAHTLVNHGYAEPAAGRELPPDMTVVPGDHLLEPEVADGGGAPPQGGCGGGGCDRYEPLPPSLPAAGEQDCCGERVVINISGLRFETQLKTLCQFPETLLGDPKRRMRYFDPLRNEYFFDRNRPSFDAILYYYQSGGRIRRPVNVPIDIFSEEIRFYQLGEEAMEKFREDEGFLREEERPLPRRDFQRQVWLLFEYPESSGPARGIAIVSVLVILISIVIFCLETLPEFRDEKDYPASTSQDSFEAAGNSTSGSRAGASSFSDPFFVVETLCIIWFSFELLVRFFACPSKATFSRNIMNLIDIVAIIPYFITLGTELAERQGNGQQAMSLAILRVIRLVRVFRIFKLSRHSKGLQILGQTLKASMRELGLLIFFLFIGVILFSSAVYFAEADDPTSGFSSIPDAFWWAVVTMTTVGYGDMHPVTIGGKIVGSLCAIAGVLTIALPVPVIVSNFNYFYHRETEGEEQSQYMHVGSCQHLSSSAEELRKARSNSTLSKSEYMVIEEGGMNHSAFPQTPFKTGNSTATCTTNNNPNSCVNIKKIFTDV

CC[C@H](C)[C@@H]1NC(=O)[C@@H](NC(=O)[C@H](CO)NC(=O)[C@@H](N)CCCNC(=N)N)CSSC[C@@H](C(=O)O)NC(=O)[C@H]([C@@H](C)O)NC(=O)CNC(=O)[C@@H]2CSSC[C@@H]3NC(=O)[C@H](CCC(N)=O)NC(=O)[C@H](Cc4ccccc4)NC(=O)[C@H](C)NC(=O)[C@H]([C@@H](C)O)NC(=O)[C@H](CSSC[C@H](NC(=O)[C@H](Cc4ccccc4)NC(=O)[C@H](CO)NC(=O)[C@H](CC(C)C)NC(=O)[C@H](CCCNC(=N)N)NC(=O)[C@H](Cc4ccc(O)cc4)NC(=O)[C@H](CCCCN)NC(=O)[C@H](CCSC)NC(=O)[C@H](CO)NC(=O)[C@H](Cc4cnc[nH]4)NC(=O)[C@H](CCCCN)NC3=O)C(=O)N[C@@H](CCCNC(=N)N)C(=O)N[C@@H](CCCCN)C(=O)N[C@@H]([C@@H](C)O)C(=O)N2)NC(=O)[C@H](CCCNC(=N)N)NC(=O)[C@H](CO)NC(=O)[C@H](CCCCN)NC(=O)[C@@H]2CCCN2C(=O)[C@H](C)NC(=O)[C@H]([C@@H](C)O)NC(=O)[C@H](CC(=O)O)NC1=O
IC50 [1]: 0.748 nM | IC50 [2]: 0.201 nM | IC50 [3]: 1.98 nM

CC[C@H](C)[C@@H]1NC(=O)[C@@H](NC(=O)[C@H](CO)NC(=O)[C@@H](N)CCCNC(=N)N)CSSC[C@@H](C(=O)O)NC(=O)[C@H]([C@@H](C)O)NC(=O)CNC(=O)[C@@H]2CSSC[C@@H]3NC(=O)[C@H](CCC(N)=O)NC(=O)[C@H](Cc4ccccc4)NC(=O)[C@H](C)NC(=O)[C@H]([C@@H](C)O)NC(=O)[C@H](CSSC[C@H](NC(=O)[C@H](Cc4ccccc4)NC(=O)[C@H](CO)NC(=O)[C@H](CC(C)C)NC(=O)[C@H](CCCNC(=N)N)NC(=O)[C@H](Cc4ccc(O)cc4)NC(=O)[C@H](CCCCN)NC(=O)[C@H](CCSC)NC(=O)[C@H](CCCCN)NC(=O)[C@H](Cc4cnc[nH]4)NC(=O)[C@H](CCCCN)NC3=O)C(=O)N[C@@H](CCCNC(=N)N)C(=O)N[C@@H](CCCCN)C(=O)N[C@@H]([C@@H](C)O)C(=O)N2)NC(=O)[C@H](CCCNC(=N)N)NC(=O)[C@H](CO)NC(=O)[C@H](CCCCN)NC(=O)[C@@H]2CCCN2C(=O)[C@H]([C@@H](C)CC)NC(=O)[C@H]([C@@H](C)O)NC(=O)[C@H](CC(=O)O)NC1=O
IC50 [1]: 0.108 nM | IC50 [2]: 0.193 nM | IC50 [3]: 0.193 nM

CC[C@H](C)[C@@H]1NC(=O)[C@@H](NC(=O)[C@H](CO)NC(=O)[C@@H](N)CCCNC(=N)N)CSSC[C@@H](C(=O)O)NC(=O)[C@H]([C@@H](C)O)NC(=O)CNC(=O)[C@@H]2CSSC[C@@H]3NC(=O)[C@H](CCC(N)=O)NC(=O)[C@H](Cc4ccccc4)NC(=O)[C@H](C)NC(=O)[C@H]([C@@H](C)O)NC(=O)[C@H](CSSC[C@H](NC(=O)[C@H](Cc4ccccc4)NC(=O)[C@H](CO)NC(=O)[C@H](CC(C)C)NC(=O)[C@H](CCCNC(=N)N)NC(=O)[C@H](Cc4ccc(O)cc4)NC(=O)[C@H](CCCCN)NC(=O)[C@H](CCCCN)NC(=O)[C@H](CO)NC(=O)[C@H](Cc4cnc[nH]4)NC(=O)[C@H](CCCCN)NC3=O)C(=O)N[C@@H](CCCNC(=N)N)C(=O)N[C@@H](CCCCN)C(=O)N[C@@H]([C@@H](C)O)C(=O)N2)NC(=O)[C@H](CCCNC(=N)N)NC(=O)[C@H](CO)NC(=O)[C@H](CCCCN)NC(=O)[C@@H]2CCCN2C(=O)[C@H]([C@@H](C)CC)NC(=O)[C@H]([C@@H](C)O)NC(=O)[C@H](CC(=O)O)NC1=O
IC50 [1]: 3.59 nM | IC50 [2]: 0.798 nM | IC50 [3]: 4.82 nM

CC[C@H](C)[C@@H]1NC(=O)[C@@H](NC(=O)[C@H](CO)NC(=O)[C@@H](N)CCCNC(=N)N)CSSC[C@@H](C(=O)O)NC(=O)[C@H]([C@@H](C)O)NC(=O)CNC(=O)[C@@H]2CSSC[C@@H]3NC(=O)[C@H](CCC(N)=O)NC(=O)[C@H](Cc4ccccc4)NC(=O)[C@H](C)NC(=O)[C@H]([C@@H](C)O)NC(=O)[C@H](CSSC[C@H](NC(=O)[C@H](Cc4ccccc4)NC(=O)[C@H](CCCCN)NC(=O)[C@H](CC(C)C)NC(=O)[C@H](CCCNC(=N)N)NC(=O)[C@H](Cc4ccc(O)cc4)NC(=O)[C@H](CCCCN)NC(=O)[C@H](CCSC)NC(=O)[C@H](CO)NC(=O)[C@H](Cc4cnc[nH]4)NC(=O)[C@H](CCCCN)NC3=O)C(=O)N[C@@H](CCCNC(=N)N)C(=O)N[C@@H](CCCCN)C(=O)N[C@@H]([C@@H](C)O)C(=O)N2)NC(=O)[C@H](CCCNC(=N)N)NC(=O)[C@H](CO)NC(=O)[C@H](CCCCN)NC(=O)[C@@H]2CCCN2C(=O)[C@H]([C@@H](C)CC)NC(=O)[C@H]([C@@H](C)O)NC(=O)[C@H](CC(=O)O)NC1=O
IC50 [1]: 0.273 nM | IC50 [2]: 0.122 nM | IC50 [3]: 0.496 nM

CC[C@H](C)[C@@H]1NC(=O)[C@@H](NC(=O)[C@H](CO)NC(=O)[C@@H](N)CCCNC(=N)N)CSSC[C@@H](C(=O)O)NC(=O)[C@H]([C@@H](C)O)NC(=O)CNC(=O)[C@@H]2CSSC[C@@H]3NC(=O)[C@H](CCC(N)=O)NC(=O)[C@H](Cc4ccccc4)NC(=O)[C@H](C)NC(=O)[C@H]([C@@H](C)O)NC(=O)[C@H](CSSC[C@H](NC(=O)[C@H](CCCCN)NC(=O)[C@H](CO)NC(=O)[C@H](CC(C)C)NC(=O)[C@H](CCCNC(=N)N)NC(=O)[C@H](Cc4ccc(O)cc4)NC(=O)[C@H](CCCCN)NC(=O)[C@H](CCSC)NC(=O)[C@H](CO)NC(=O)[C@H](Cc4cnc[nH]4)NC(=O)[C@H](CCCCN)NC3=O)C(=O)N[C@@H](CCCNC(=N)N)C(=O)N[C@@H](CCCCN)C(=O)N[C@@H]([C@@H](C)O)C(=O)N2)NC(=O)[C@H](CCCNC(=N)N)NC(=O)[C@H](CO)NC(=O)[C@H](CCCCN)NC(=O)[C@@H]2CCCN2C(=O)[C@H]([C@@H](C)CC)NC(=O)[C@H]([C@@H](C)O)NC(=O)[C@H](CC(=O)O)NC1=O
IC50 [1]: 3.49 nM | IC50 [2]: 0.985 nM | IC50 [3]: 11.8 nM

CC[C@H](C)[C@@H]1NC(=O)[C@@H](NC(=O)[C@H](CO)NC(=O)[C@@H](N)CCCNC(=N)N)CSSC[C@@H](C(=O)O)NC(=O)[C@H]([C@@H](C)O)NC(=O)CNC(=O)[C@@H]2CSSC[C@@H]3NC(=O)[C@H](CCC(N)=O)NC(=O)[C@H](Cc4ccccc4)NC(=O)[C@H](C)NC(=O)[C@H]([C@@H](C)O)NC(=O)[C@H](CSSC[C@H](NC(=O)[C@H](Cc4ccccc4)NC(=O)[C@H](CO)NC(=O)[C@H](CC(C)C)NC(=O)[C@H](CCCNC(=N)N)NC(=O)[C@H](Cc4ccc(O)cc4)NC(=O)[C@H](CCCCN)NC(=O)[C@H](CCSC)NC(=O)[C@H](CO)NC(=O)[C@H](Cc4cnc[nH]4)NC(=O)[C@H](CCCCN)NC3=O)C(=O)N[C@@H](CCCCN)C(=O)N[C@@H](CCCCN)C(=O)N[C@@H]([C@@H](C)O)C(=O)N2)NC(=O)[C@H](CCCNC(=N)N)NC(=O)[C@H](CO)NC(=O)[C@H](CCCCN)NC(=O)[C@@H]2CCCN2C(=O)[C@H]([C@@H](C)CC)NC(=O)[C@H]([C@@H](C)O)NC(=O)[C@H](CC(=O)O)NC1=O
IC50 [1]: 0.041 nM | IC50 [2]: 0.293 nM | IC50 [3]: 0.071 nM

CC[C@H](C)[C@@H]1NC(=O)[C@@H](NC(=O)[C@H](CO)NC(=O)[C@@H](N)CCCNC(=N)N)CSSC[C@@H](C(=O)O)NC(=O)[C@H](CCCCN)NC(=O)CNC(=O)[C@@H]2CSSC[C@@H]3NC(=O)[C@H](CCC(N)=O)NC(=O)[C@H](Cc4ccccc4)NC(=O)[C@H](C)NC(=O)[C@H]([C@@H](C)O)NC(=O)[C@H](CSSC[C@H](NC(=O)[C@H](Cc4ccccc4)NC(=O)[C@H](CO)NC(=O)[C@H](CC(C)C)NC(=O)[C@H](CCCNC(=N)N)NC(=O)[C@H](Cc4ccc(O)cc4)NC(=O)[C@H](CCCCN)NC(=O)[C@H](CCSC)NC(=O)[C@H](CO)NC(=O)[C@H](Cc4cnc[nH]4)NC(=O)[C@H](CCCCN)NC3=O)C(=O)N[C@@H](CCCNC(=N)N)C(=O)N[C@@H](CCCCN)C(=O)N[C@@H]([C@@H](C)O)C(=O)N2)NC(=O)[C@H](CCCNC(=N)N)NC(=O)[C@H](CO)NC(=O)[C@H](CCCCN)NC(=O)[C@@H]2CCCN2C(=O)[C@H]([C@@H](C)CC)NC(=O)[C@H]([C@@H](C)O)NC(=O)[C@H](CC(=O)O)NC1=O
IC50 [1]: 0.067 nM | IC50 [2]: 0.153 nM | IC50 [3]: 0.136 nM

CC[C@H](C)[C@@H]1NC(=O)[C@@H](NC(=O)[C@H](CO)NC(=O)[C@@H](N)CCCNC(=N)N)CSSC[C@@H](C(=O)O)NC(=O)[C@H]([C@@H](C)O)NC(=O)CNC(=O)[C@@H]2CSSC[C@@H]3NC(=O)[C@H](CCCCN)NC(=O)[C@H](Cc4ccccc4)NC(=O)[C@H](C)NC(=O)[C@H]([C@@H](C)O)NC(=O)[C@H](CSSC[C@H](NC(=O)[C@H](Cc4ccccc4)NC(=O)[C@H](CO)NC(=O)[C@H](CC(C)C)NC(=O)[C@H](CCCNC(=N)N)NC(=O)[C@H](Cc4ccc(O)cc4)NC(=O)[C@H](CCCCN)NC(=O)[C@H](CCCCN)NC(=O)[C@H](CO)NC(=O)[C@H](Cc4cnc[nH]4)NC(=O)[C@H](CCCCN)NC3=O)C(=O)N[C@@H](CCCNC(=N)N)C(=O)N[C@@H](CCCCN)C(=O)N[C@@H]([C@@H](C)O)C(=O)N2)NC(=O)[C@H](CCCNC(=N)N)NC(=O)[C@H](CO)NC(=O)[C@H](CCCCN)NC(=O)[C@@H]2CCCN2C(=O)[C@H]([C@@H](C)CC)NC(=O)[C@H]([C@@H](C)O)NC(=O)[C@H](CC(=O)O)NC1=O
IC50 [1]: 0.249 nM | IC50 ([2]; cho-k1): 0.13 nM | IC50 [3]: 5.68 nM

CCCC[C@@H]1NC(=O)[C@H](CO)NC(=O)[C@H](Cc2c[nH]cn2)NC(=O)[C@H](CCCCN)NC(=O)[C@@H]2CSSC[C@@H]3NC(=O)[C@H]([C@@H](C)O)NC(=O)[C@H](CCCCN)NC(=O)[C@H](CCCNC(=N)N)NC(=O)[C@H](CSSC[C@H](NC(=O)[C@H](CCCNC(=N)N)NC(=O)[C@H](CO)NC(=O)[C@H](CCCCN)NC(=O)[C@@H]4CCCN4C(=O)[C@H]([C@@H](C)CC)NC(=O)[C@H]([C@@H](C)O)NC(=O)[C@H](CC(=O)O)NC(=O)[C@H]([C@@H](C)CC)NC(=O)[C@@H](NC(=O)[C@H](CO)NC(=O)[C@@H](N)CCCNC(=N)N)CSSC[C@@H](C(=O)N[C@@H](C)C(=O)O)NC(=O)[C@H]([C@@H](C)O)NC(=O)CNC3=O)C(=O)N[C@@H]([C@@H](C)O)C(=O)N[C@@H](C)C(=O)N[C@@H](Cc3ccccc3)C(=O)N[C@@H](CCCCN)C(=O)N2)NC(=O)[C@H](Cc2ccccc2)NC(=O)[C@H](CO)NC(=O)[C@H](CC(C)C)NC(=O)[C@H](CCCNC(=N)N)NC(=O)[C@H](Cc2ccc(O)cc2)NC(=O)[C@H](CCCCN)NC1=O
IC50 [1]: 0.305 nM | IC50 [2]: 0.071 nM | IC50 [3]: 0.515 nM
